For 12 compounds, TGI results are on record in PubChem BioAssay (NCI).

Assay in all cases: NCI tumour cell line growth inhibition, 48 h
For assay [1], the system named is UO-31 renal.
Assay [2] deals with RXF 393 renal.
In assay [3] the test system is RPMI-8226 leukemia.
The test system of assay [4] is OVCAR-4 ovarian.
In assay [5] the test system is OVCAR-8 ovarian.
Assay [6] relates to K-562 leukemia.
Assay [7] has as its system ACHN renal.
For assay [8], the system named is SF-295 CNS.
Assay [9] deals with LOX IMVI melanoma.
Assay [10] deals with 786-0 renal.

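Briefly, cells in 96-well plates were exposed to five compound concentrations for 48 h, and endpoints were estimated by linear interpolation. TGI: concentration producing complete growth inhibition.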

On to `CCCCn1c2c(n(CCCC)c1=[Se])-c1c(n(CCCC)c(=[Se])n1CCCC)S[Se][Se]S2`, for which the TGI in assay [1] was above 44.2 µM; in [2], above 71.4 µM; in assay [3] it was above 70 µM; in assay [4], 25.8 µM; in assay [5], 30.5 µM; in [6], above 66.9 µM. In addition, the TGI is 30.9 µM in assay [7], 30.9 µM in assay [8], 30.1 µM in [9] and above 72.6 µM in [10].

On to `O=C(CC(C(=O)c1cccs1)c1ccccc1)c1ccccc1O` (stereo not given), for which the TGI in assay [1] was above 100 µM; in assay [2], 27.9 µM; in assay [3], above 100 µM; in assay [4], above 64.2 µM; in assay [5], above 100 µM; in assay [6] it was 46.6 µM. The TGI in assay [7] is above 44.8 µM; in [8], above 27.9 µM; in [9], above 47.4 µM; in [10] it was above 38.4 µM.

With `COc1ccc(NC(C)=O)cc1N1C(=O)/C(=C\c2cccc(Oc3ccccc3)c2)SC1c1ccccc1` (stereo not given), the TGI in assay [1] was above 100 µM; in assay [2] it was above 100 µM; in assay [3] it was 61.9 µM; in [4], above 100 µM; in assay [5], 64.8 µM; in assay [6], above 100 µM. For the same compound, the TGI in assay [7] is above 100 µM; in assay [8] it was above 100 µM; in assay [9], 55.5 µM; in [10], above 100 µM.

For the compound `Nc1c(O)c(C(=O)O)cc2ccccc12`, the TGI in [1] was above 100 µM; in assay [2], above 100 µM; in assay [3], 95.7 µM; in [4], 48.9 µM; in assay [5], above 100 µM; in assay [6], 85.9 µM. Further, the TGI in assay [7] was 64.3 µM; in [8], above 100 µM; in assay [9] it was 22.5 µM; in [10] it was 36.4 µM.

Turning to `COc1cc2c3c4c1OCc1c5c(cc(c1-4)CC3[N+](C)(C)CC2)OCO5` (stereo not given), the TGI in assay [1], in assay [2], in assay [3], in assay [4], in [5] and in assay [6] was above 100 µM each time. In addition, the TGI in assay [7] is above 100 µM; in assay [8], above 43 µM; in assay [9], above 100 µM; in [10] it was above 63.5 µM.

`Cc1ccc(S(=O)(=O)NC(=O)NCC(=O)O)cc1`: the TGI in assay [1], in assay [2], in [3], in assay [4], in assay [5] and in [6] was above 100 µM in each case. Also, the TGI in assay [7], in [8], in [9] and in [10] was above 100 µM each time.

Take `COC1=CC(=O)C2C(C1=O)[C@@H]1c3ccccc3OC[C@H]21` (stereo not given in full): the TGI in assay [1], in assay [2], in [3], in assay [4], in assay [5] and in assay [6] was above 100 µM in each case. For the same compound, the TGI in [7], in assay [8], in [9] and in assay [10] was above 100 µM in each case.

Regarding `COc1ccc(-c2cc(-c3ccccc3)nc(N)n2)c(O)c1`, the TGI was above 23.3 µM in assay [1]; above 100 µM in assay [2]; 5.76 µM in [3]; above 100 µM in assay [4]; above 100 µM in assay [5]; above 22.9 µM in [6]. For the same compound, the TGI in assay [7], in assay [8], in assay [9] and in assay [10] was above 100 µM each time.

Consider `O=C(O)CCCN=C(C(=NCCCC(=O)O)c1ccccc1)c1ccccc1`, for which the TGI in assay [1], in [2], in [3], in assay [4], in assay [5] and in assay [6] was above 100 µM throughout. The TGI in [7], in [8], in [9] and in assay [10] was above 100 µM each time.

For the compound `CCOC(=O)C1C(=O)c2cccc(OC)c2C2COC(=O)N12` (stereo not given), the TGI in [1], in assay [2], in [3], in assay [4], in assay [5] and in [6] was above 100 µM in each case. The TGI in assay [7], in assay [8], in assay [9] and in assay [10] was above 100 µM in each case.

As for `COC(=O)C(=O)C(C(=O)C(=O)Nc1nc(=S)[nH][nH]1)c1nc2ccc([N+](=O)[O-])cc2[nH]c1=O` (stereo not given), the TGI in [1], in assay [2], in [3], in [4], in assay [5] and in [6] was above 100 µM throughout. The TGI in assay [7], in assay [8], in [9] and in assay [10] was above 100 µM throughout.

For `O=c1[nH]c(Br)nc2c(N3CCCCC3)c[nH]c12`, the TGI in [1], in [2], in assay [3], in assay [4], in [5] and in assay [6] was above 100 µM in each case. Moreover, the TGI in assay [7], in assay [8], in assay [9] and in [10] was above 100 µM each time.
